{"source": "paper PMC6613200", "about": "(International Journal of Nanomedicine, 2019)", "key": {"[1]": {"experiment": "SPR binding of peptide aptamer to Au/Cys/carboxyl-GO chip", "conditions": "carboxyl-GO with peptide aptamer, 1:1 Langmuir model"}, "[2]": {"system": "BSA", "experiment": "SPR selectivity, peptide vs interfering BSA", "type": "binding, bovine", "conditions": "mixture containing 20 nM BSA and 20 nM HSA with hCG; 100 μM peptide"}, "[3]": {"system": "HSA", "experiment": "SPR selectivity, peptide vs interfering HSA", "type": "binding, human", "conditions": "mixture containing 20 nM BSA and 20 nM HSA with hCG; 100 μM peptide"}}, "data": [{"substance": "(N-)PPLRINRHILTR(-C) [peptide aptamer]", "values": [{"measurement": "KA", "setting": "[1]; flow rate 30 µL/min", "value": "2.81e+07", "unit": "M⁻¹"}, {"measurement": "KD (kd/ka)", "setting": "[1]; flow rate 30 µL/min", "value": "0.36×10^–7 M"}, {"measurement": "association rate ka", "setting": "[1]; flow rate 30 µL/min", "value": "32.57 ×10[4] M^−1 s^−1"}, {"measurement": "association rate ka", "setting": "[1]; flow rate 60 µL/min", "value": "13.75 ×10[4] M^−1 s^−1"}, {"measurement": "association rate ka", "setting": "[1]; flow rate 90 µL/min", "value": "7.89 ×10[4] M^−1 s^−1"}, {"measurement": "interaction of peptide with interfering protein", "setting": "[2]", "value": "no significant interaction between the two proteins and the peptide"}, {"measurement": "interaction of peptide with interfering protein", "setting": "[3]", "value": "no significant interaction between the two proteins and the peptide"}]}]}
